This note sets out measurements from patent US20250230193A1, “CYCLIC COMPOUND HAVING SELECTIVE KRAS INHIBITORY EFFECT ON HRAS AND NRAS” (CHUGAI SEIYAKU KABUSHIKI KAISHA, priority 2022, published 2025).

Experiment [1] addresses GDP-bound KRAS wild-type protein (Homo sapiens, UniProt P01116). The experiment in a line: Binding to KRAS by surface plasmon resonance (SPR), Single Cycle Kinetics. As to conditions: SPR, Single Cycle Kinetics; GDP-bound KRAS wild-type protein. In general terms: In SPR one partner is held on a chip, and binding of the other changes the refractive index at the surface.
Experiment [2] relates to human lung cancer strain NCI-H441. As to conditions: read-out: NCI-H441 IC50; NCI-H441 cells, 4 days, CellTiter-Glo.
Experiment [3] has as its target GDP-bound HRAS wild-type protein (Homo sapiens, UniProt P01112). The experiment in a line: Binding to HRAS by surface plasmon resonance (SPR), Single Cycle Kinetics. As to conditions: SPR; KD ratio class.
In experiment [4] the target is GDP-bound NRAS wild-type protein (Homo sapiens, UniProt P01111). The experiment in a line: Binding to NRAS by surface plasmon resonance (SPR), Single Cycle Kinetics. The settings on record: SPR; KD ratio class.
GDP-bound NRAS wild-type protein, sequence (P01111 whole entry): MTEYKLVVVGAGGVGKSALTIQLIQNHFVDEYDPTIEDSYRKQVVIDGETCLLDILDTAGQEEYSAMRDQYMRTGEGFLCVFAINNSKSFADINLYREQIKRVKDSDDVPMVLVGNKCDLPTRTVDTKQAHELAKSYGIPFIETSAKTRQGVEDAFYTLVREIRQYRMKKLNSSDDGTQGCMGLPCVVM

GDP-bound HRAS wild-type protein, sequence (P01112 whole entry): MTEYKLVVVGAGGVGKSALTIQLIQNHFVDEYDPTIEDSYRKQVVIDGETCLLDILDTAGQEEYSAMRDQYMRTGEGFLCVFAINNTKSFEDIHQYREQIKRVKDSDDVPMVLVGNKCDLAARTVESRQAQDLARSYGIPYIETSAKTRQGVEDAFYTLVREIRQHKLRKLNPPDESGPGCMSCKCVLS

Broadly, the Kd is the free concentration of one partner at which half of the binding sites on the other are occupied at equilibrium, for simple one-to-one binding. Low values mean higher affinity, high ones lower affinity. In general, IC50 refers to the concentration at which inhibition is half-maximal. Consider `CCO[C@@H]1C[C@H]2C(=O)NC3(CCC3)C(=O)N(C)[C@@H](C3CCCC3)C(=O)N(C)[C@H](C(=O)N(C)C)CC(=O)N(C)[C@@H](CC3CCCC3)C(=O)N[C@@H]([C@@H](C)CC)C(=O)N(C)CC(=O)N(C)[C@H]3C/C=C\CCN(C3=O)[C@@H](Cc3ccc(C(F)(F)F)cc3)C(=O)N(C)CC(=O)N[C@@H](CCc3ccc4sccc4c3)C(=O)N2C1` [PP1261], for which the affinity in experiment [1], expressed as Kd, was 0.44 nM. Moreover, the IC50 in experiment [2] is 76.8 nM. Moreover, in experiment [3], the “HRAS/KRAS (ratio of KD value for GDP-bound HRAS wild-type protein to KD value for KRAS)” value is “A (a compound having 10 or more and less than 20 is denoted as A)”. In addition, the “NRAS/KRAS (ratio of KD value for GDP-bound NRAS wild-type protein to KD value for KRAS)” value in experiment [4] is “A (a compound having 10 or more and less than 20 is denoted as A)”.

Consider `CCOC[C@H]1C(=O)N[C@@H]([C@@H](C)CC)C(=O)N(C)CC(=O)N(C)[C@H]2C/C=C\CCN(C2=O)[C@@H](Cc2ccc(C(F)(F)F)cc2)C(=O)N(C)CC(=O)N[C@@H](CCc2cc(F)c(C(F)(F)F)c(F)c2)C(=O)N2C[C@H](OCC)C[C@H]2C(=O)NC2(CCC2)C(=O)N(C)[C@@H](C2CCCC2)C(=O)N(C)[C@H](C(=O)N(C)C)CC(=O)N1C` [PP1266], for which, in experiment [1], the affinity, expressed as Kd, was 0.045 nM. In experiment [2], the IC50 amounted to 12.2 nM. In addition, the “HRAS/KRAS (ratio of KD value for GDP-bound HRAS wild-type protein to KD value for KRAS)” value in experiment [3] was “A (a compound having 10 or more and less than 20 is denoted as A)”. In experiment [4], the “NRAS/KRAS (ratio of KD value for GDP-bound NRAS wild-type protein to KD value for KRAS)” value is “A (a compound having 10 or more and less than 20 is denoted as A)”.

In experiment [1], `CCO[C@@H]1C[C@H]2C(=O)NC3(CCC3)C(=O)N(C)[C@@H](C3CCCC3)C(=O)N(C)[C@H](C(=O)N(C)C)CC(=O)N(C)[C@@H](COCC(F)(F)F)C(=O)N[C@@H]([C@@H](C)CC)C(=O)N(C)CC(=O)N(C)[C@H]3C/C=C\CCN(C3=O)[C@@H](Cc3ccc(C(F)(F)F)cc3)C(=O)N(C)CC(=O)N[C@@H](CCc3cc(F)c(C(F)(F)F)c(F)c3)C(=O)N2C1` [PP1267] displayed a Kd of 0.046 nM. The IC50 in experiment [2] was 10.8 nM. Further, in experiment [3], the “HRAS/KRAS (ratio of KD value for GDP-bound HRAS wild-type protein to KD value for KRAS)” value is “A (a compound having 10 or more and less than 20 is denoted as A)”. The “NRAS/KRAS (ratio of KD value for GDP-bound NRAS wild-type protein to KD value for KRAS)” value in experiment [4] was “A (a compound having 10 or more and less than 20 is denoted as A)”.

On to `CCO[C@@H]1C[C@H]2C(=O)NC3(CCC3)C(=O)N(C)[C@@H](C3CCCC3)C(=O)N(C)[C@H](C(=O)N(C)C)CC(=O)N(C)[C@@H](COC3CC3)C(=O)N[C@@H]([C@@H](C)CC)C(=O)N(C)CC(=O)N(C)[C@H]3C/C=C\CCN(C3=O)[C@@H](Cc3ccc(C(F)(F)F)cc3)C(=O)N(C)CC(=O)N[C@@H](CCc3cc(F)c(C(F)(F)F)c(F)c3)C(=O)N2C1` [PP1268], for which the Kd in experiment [1] turned out to be 0.045 nM. The 50% inhibitory concentration (IC50) in experiment [2] was 12.1 nM. The “HRAS/KRAS (ratio of KD value for GDP-bound HRAS wild-type protein to KD value for KRAS)” value in experiment [3] was “A (a compound having 10 or more and less than 20 is denoted as A)”. Moreover, the “NRAS/KRAS (ratio of KD value for GDP-bound NRAS wild-type protein to KD value for KRAS)” value in experiment [4] was “A (a compound having 10 or more and less than 20 is denoted as A)”.

As for `CC[C@H](C)[C@@H]1NC(=O)[C@H](C)N(C)C(=O)C[C@@H](C(=O)N(C)C)N(C)C(=O)[C@H](C2CCCC2)N(C)C(=O)C2(CCC2)NC(=O)[C@@H]2CCCN2C(=O)[C@H](CCc2cc(F)c(C(F)(F)F)c(F)c2)NC(=O)CN(C)C(=O)[C@H](Cc2ccc(C(F)(F)F)cc2)N2CC/C=C\C[C@@H](C2=O)N(C)C(=O)CN(C)C1=O` [PP1271], binding in experiment [1] was put at a Kd of 0.054 nM. Moreover, the IC50 in experiment [2] turned out to be 90.7 nM. Moreover, the “HRAS/KRAS (ratio of KD value for GDP-bound HRAS wild-type protein to KD value for KRAS)” value in experiment [3] was “A (a compound having 10 or more and less than 20 is denoted as A)”. Also, in experiment [4], the “NRAS/KRAS (ratio of KD value for GDP-bound NRAS wild-type protein to KD value for KRAS)” value is reported as “AA (a compound having 20 or more is denoted as AA)”.
